Legend:
[1] = tested on: spontaneously hypertensive rats; assay: Acute antihypertensive effects in conscious spontaneously hypertensive rats; assay type: in vivo; details: for SBP at 1 h after administration / heart rates at 1 h / SBP at 3 h after administration / heart rates at 3 h / SBP at 5 h after administration / heart rates at 5 h / SBP at 9 h after administration / heart rates at 9 h / SBP at 12 h after administration / heart rates at 12 h / SBP at 24 h after administration / heart rates at 24 h / SBP base value / heart rates base value: po mg/kg: compound 1 3, pinacidil 3, nifedipine 10, bisoprolol 60, captopril 40, means ± SD, 9-13 rats; for heart rates at 1 h / heart rates at 3 h / heart rates at 5 h / heart rates at 9 h / heart rates at 12 h / heart rates at 24 h / heart rates base value: in bpm (unit assumed); for SBP base value / heart rates base value: base value before administration
Description: Biological activity experiment 2. The acute antihypertensive effects of compound 1 in conscious spontaneously hypertensive rats.
The methods of biological activity experiment 2 were described by Long Chao-Liang et al: Long Chao-Liang, Wang Hai, Xiao Wen-Bin. Effects of pinacidil on, hypertensive vascular remodeling. Chin J Pharmacol Toxicol 1997; 11(1):42-46.

[2] = tested on: rats anesthetized with pentobarbital sodium; assay: Antagonism of glibenclamide on the cardiovascular effects in anesthetized rats; assay type: in vivo, Wistar rats; details: for +dp/dtmax / DBP / HR / LVSP / MBP / SB / Vpm / −dp/dtmax: iv mg/kg: pinacidil 1.0, nifedipine 1.0, compound 1 0.5, means ± SE; for antagonism of the cardiovascular effects by glibenclamide (in words): glibenclamide 20 mg/kg iv pretreatment
Procedure: The methods of biological activity experiment 1 were as follows: Male Wistar rats, weighing 280±30 g were purchased from the experimental animal center of Academy of Military Medical Sciences. Rats were anesthetized with pentobarbital sodium (45 mg/kg) by peritoneal injection. A PE50 polyethylene catheter was inserted into the left ventricle through right carotid artery for cardiac function measurement with a pressure energe exchanger, wherein the signal is put into a SMUP-PC biosignal processing system. Cardiac functional parameters such as HR, LVSP, +dp/dtmax, −dp/dtmax and Vpm were recorded. Another two PE50 polyethylene catheters were inserted into the right femoral artery and vein respectively for blood pressure measurement wherein the artery cathether was linked to a four-channel physiology recorder (RM-6000) through a MPU-0.5A Type pressure energe exchanger, which recorded SBP, DBP and MBP, while the vein catheter was used for compound administration. The methods were described by Liu Wei et al: Liu Wei, Wang Hai, Xiao Wen-Bin.
The methods of Biological activity experiment 3 were the same as those described in the biological activity experiment 1.

[3] = target: T1, ATP-sensitive potassium channels in vascular smooth muscles (Rattus norvegicus, UniProt Q63563); assay: Association and dissociation kinetics of [^3H]glibenclamide binding in aortic rings; design: species or system Wistar rat; details: drug M: compound 1 10^−4, pinacidil 10^−4, ATP 10^−2, ADP 10^−3, UDP 5 × 10^−3, Ade 10^−3; for Dissociation kinetics k2 of [^3H]glibenclamide binding / Association kinetics k1 of [^3H]glibenclamide binding / Association kinetics kobs of [^3H]glibenclamide binding / Association kinetics kA of [^3H]glibenclamide binding: 25° C.; for Dissociation kinetics k2 of [^3H]glibenclamide binding: control 0.72 ± 0.11; for Dissociation kinetics Kd of [^3H]glibenclamide binding in presence of the drug: Kd of the radioligand, not of the drug, control 0.55 ± 0.14; for Association kinetics k1 of [^3H]glibenclamide binding / Association kinetics kobs of [^3H]glibenclamide binding / Association kinetics kA of [^3H]glibenclamide binding: [^3H]-glibenclamide 3 nM; for Association kinetics k1 of [^3H]glibenclamide binding: control 1.31 ± 0.14; for Association kinetics kobs of [^3H]glibenclamide binding: control 4.65 ± 0.37, means ± SD, n = 4~10; for Association kinetics kA of [^3H]glibenclamide binding: control 181.90 ± 46.90
T1 construct: The aorta was cut into about 3-5 mm arterial rings and the vascular endothelium was scraped off; from tissue; host or cells: endothelium-removed aortic rings of male Wistar rats
T1 sequence (Q63563 1-1545 isoform Q63563-2): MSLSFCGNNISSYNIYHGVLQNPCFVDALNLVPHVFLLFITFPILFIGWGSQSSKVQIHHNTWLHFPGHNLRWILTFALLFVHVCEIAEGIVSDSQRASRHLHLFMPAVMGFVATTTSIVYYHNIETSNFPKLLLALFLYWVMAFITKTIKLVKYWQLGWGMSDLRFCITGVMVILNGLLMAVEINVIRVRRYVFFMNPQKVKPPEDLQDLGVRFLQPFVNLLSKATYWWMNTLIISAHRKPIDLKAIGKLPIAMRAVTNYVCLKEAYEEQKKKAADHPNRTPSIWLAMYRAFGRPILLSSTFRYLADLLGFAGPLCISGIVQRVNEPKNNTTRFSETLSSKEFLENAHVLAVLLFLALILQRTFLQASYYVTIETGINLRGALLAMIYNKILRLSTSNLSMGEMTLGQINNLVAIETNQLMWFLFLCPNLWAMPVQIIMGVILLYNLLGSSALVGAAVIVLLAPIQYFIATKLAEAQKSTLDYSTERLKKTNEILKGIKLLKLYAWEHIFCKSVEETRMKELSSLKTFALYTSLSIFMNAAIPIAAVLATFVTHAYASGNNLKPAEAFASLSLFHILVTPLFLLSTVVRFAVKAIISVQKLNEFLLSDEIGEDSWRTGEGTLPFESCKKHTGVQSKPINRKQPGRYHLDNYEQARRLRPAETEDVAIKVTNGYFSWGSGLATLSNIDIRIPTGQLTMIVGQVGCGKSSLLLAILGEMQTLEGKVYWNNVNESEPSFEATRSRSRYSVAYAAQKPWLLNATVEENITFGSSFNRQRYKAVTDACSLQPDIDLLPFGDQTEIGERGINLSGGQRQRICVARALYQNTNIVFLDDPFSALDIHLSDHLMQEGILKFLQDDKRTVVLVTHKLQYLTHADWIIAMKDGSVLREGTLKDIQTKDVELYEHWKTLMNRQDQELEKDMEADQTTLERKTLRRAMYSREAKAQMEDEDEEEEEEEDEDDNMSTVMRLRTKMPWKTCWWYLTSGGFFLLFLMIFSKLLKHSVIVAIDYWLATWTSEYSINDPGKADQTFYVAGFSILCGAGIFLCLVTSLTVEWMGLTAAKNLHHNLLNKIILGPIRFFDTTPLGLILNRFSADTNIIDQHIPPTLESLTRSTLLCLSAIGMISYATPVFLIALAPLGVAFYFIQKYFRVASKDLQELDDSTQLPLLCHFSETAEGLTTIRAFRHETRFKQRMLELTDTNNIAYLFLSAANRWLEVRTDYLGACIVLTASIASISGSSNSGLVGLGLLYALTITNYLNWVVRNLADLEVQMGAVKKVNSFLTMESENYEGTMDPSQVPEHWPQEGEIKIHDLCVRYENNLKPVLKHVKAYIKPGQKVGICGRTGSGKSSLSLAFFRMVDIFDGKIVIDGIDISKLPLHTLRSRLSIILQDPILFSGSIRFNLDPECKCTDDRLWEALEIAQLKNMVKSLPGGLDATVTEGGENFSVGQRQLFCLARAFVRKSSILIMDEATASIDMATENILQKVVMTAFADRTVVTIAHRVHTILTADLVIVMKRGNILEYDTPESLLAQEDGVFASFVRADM
T1 sequence (Q63664 whole entry partner): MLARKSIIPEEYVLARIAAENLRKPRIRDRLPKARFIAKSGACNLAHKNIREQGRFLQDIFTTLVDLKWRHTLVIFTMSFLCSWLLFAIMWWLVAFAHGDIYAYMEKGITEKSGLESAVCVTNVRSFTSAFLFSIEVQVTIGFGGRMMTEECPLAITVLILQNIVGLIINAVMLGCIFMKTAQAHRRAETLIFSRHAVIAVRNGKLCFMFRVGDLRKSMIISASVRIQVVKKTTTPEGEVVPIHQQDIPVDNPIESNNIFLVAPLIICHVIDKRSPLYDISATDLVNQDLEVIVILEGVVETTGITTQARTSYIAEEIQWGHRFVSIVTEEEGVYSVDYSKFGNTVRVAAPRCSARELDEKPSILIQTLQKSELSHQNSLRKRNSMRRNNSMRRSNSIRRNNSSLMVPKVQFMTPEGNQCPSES
Description: Biological activity experiment 4. Allosteric regulation of novel compounds on ATP-sensitive potassium channels in vascular smooth muscles.
To study the allosteric regulation of compound 1 on ATP-sensitive potassium channels in vascular smooth muscles, the radio-labled-ligand was used in the biological activity experiment 4.
1. The allosteric regulation of compound 1 on the binding sites for the selective KATP blocker glibenclamide in vascular smooth muscles was studied as follows: After decapitated, the male Wistar rat (340±20 g) was immediately incised open the thoracic cavity. The aorta was dissected and immersed in the 4° C. buffer containing 10 mM HEPES to wash off the blood, then carefully extirpated the fat, peripheral connective tissues and thrombus. The aorta was cut into about 3-5 mm arterial rings and the vascular endothelium was scraped off with wet tampon. The arterial rings were blotted, weighted and transferred into the tubes containing proper amount of ice colded physiological saline buffer. […] At 5,10,15,20,30,60,90 and 120 min after incubation, 9 mL ice colded Tris buffer (50 mM) was added to terminate the reaction. After washing off the free and bound [^3H]-glibenclamide, the aorta was blotted, transferred to a scintillator, added 50 uL 30% H2O2 and reacted for 2 h at 80° C. After cooling, 2.5 mL ethyl glycol and 5 mL 1% B-BPD xylene were added in sequence, kept stationary for 8 h and measured under a scintillometer for cpm value. The resulting data were fit into a regression line with In[BEQ/(BEQ-Bt)]vs.t and the parameters for association kinetics were obtained. In the disassociation kinetics experiments, the aorta treated as described above and [^3H]-glibenclamide were incubated for 60 min at 25° C., and then 30 uM glibenclamide was added. 0,5,15,30,60,90 and 120 min later, the cpm values for the complex of [^3H]-glibenclamide and KATP were measured. The resulting data were fit into a regression line with In(B/BEQ)]vs.t and the parameters for disassociation kinetics were obtained. 2. The allosteric regulation of compound 1 on the binding sites for the selective KATP activator P1075 in vascular smooth muscles was studied with the method as described above, but some conditions should be changed as follows: the incubation temperature was 37° C. instead of 25° C.;P1075 was used instead of glibenclamide; In the association kinetics experiments, the time points for sampling were 5,10,15,20,30,45,60 and 90 min, while in the disassociation kinetics experiments, that were 1,3,5,10,20,30,45 and 60 min. Biological activity experiment 5. The effects of compound 1 on the specific binding of high selective activator [^3H]P1075 with ATP-sensitive potassium channels in vascular smooth muscles.

[4] = target: T1, ATP-sensitive potassium channels in vascular smooth muscles; assay: Inhibition of specific binding of [^3H]P1075 in endothelium-removed rat aorta; design: species or system Wistar rat; details: for IC50 / Ki: [^3H] P1075 5 nmol L^−1, 90 minutes at 37° C., endothelium-removed rat aorta; for Ki: read-out: pKi for inhibition of specific binding of [^3H]P1075 (converted)
[5] = A: after administration (30 min after pinacidil, 10 min nifedipine, 15 min compound 1), glibenclamide 20 iv pretreatment
[6] = B: before administration, glibenclamide 20 iv pretreatment ten minutes

CC(C)NC(C)(C)C(C)C [compound 1, N-(1-methylethyl)-2,3-dimethyl-2-butylamine]
SBP at 1 h after administration [1]: 227 ± 12 mmHg
heart rates at 1 h [1]: 414 ± 27
SBP at 3 h after administration [1]: 218 ± 7 mmHg
heart rates at 3 h [1]: 412 ± 27
SBP at 5 h after administration [1]: 215 ± 15 mmHg
heart rates at 5 h [1]: 408 ± 25
SBP at 9 h after administration [1]: 229 ± 8 mmHg
heart rates at 9 h [1]: 407 ± 21
SBP at 12 h after administration [1]: 243 ± 7 mmHg
heart rates at 12 h [1]: 413 ± 15
SBP at 24 h after administration [1]: 244 ± 9 mmHg
heart rates at 24 h [1]: 417 ± 12
SBP base value [1]: 246 ± 11 mmHg
heart rates base value [1]: 419 ± 20
duration of antihypertensive action ([1]; oral administration, spontaneously hypertensive rats): 9 h
+dp/dtmax [2, 5]: 672 ± 36 kPa/a
DBP [2, 5]: 77 ± 9 mmHg
HR [2, 5]: 357 ± 18 bpm
LVSP [2, 5]: 133 ± 6 mmHg
MBP [2, 5]: 86 ± 9 mmHg
SB [2, 5]: 105 ± 10 mmHg
Vpm [2, 5]: 2.7 ± 03 /a
−dp/dtmax [2, 5]: 507 ± 39 kPa/a
+dp/dtmax [2, 6]: 978 ± 54 kPa/a
DBP [2, 6]: 98 ± 7 mmHg
HR [2, 6]: 394 ± 13 bpm
LVSP [2, 6]: 180 ± 10 mmHg
MBP [2, 6]: 110 ± 7 mmHg
SB [2, 6]: 134 ± 8 mmHg
Vpm [2, 6]: 3.3 ± 0.2 /a
−dp/dtmax [2, 6]: 819 ± 56 kPa/a
antagonism of the cardiovascular effects by glibenclamide (in words) [2]: could be antagnized by glibenclamide
Dissociation kinetics k2 of [^3H]glibenclamide binding [3]: 1.02 ± 0.14 ×10^2 nM^−1 · min^−1
Dissociation kinetics Kd of [^3H]glibenclamide binding in presence of the drug [3]: 1.64 ± 0.69 nM
Association kinetics k1 of [^3H]glibenclamide binding [3]: 0.62 ± 0.25 ×10^−2nM^−1 · min^−1
Association kinetics kobs of [^3H]glibenclamide binding [3]: 2.90 ± 0.74 ×10^−2nM^−1 · min^−1
Association kinetics kA of [^3H]glibenclamide binding [3]: 61.04 ± 25.89 ×10^−2nM^−1 · min^−1
IC50 [4]: 355 ± 53.7 nM
Ki [4]: 355 nM
competitive inhibition of [^3H] P1075 binding, times weaker than that of P1075 ([4]; relative to P1075): 39 times
competitive inhibition of [^3H] P1075 binding, times stronger than that of glibenclamide ([4]; relative to glibenclamide): 166 times
competitive inhibition of [^3H] P1075 binding, times weaker than that of pinacidil ([4]; relative to pinacidil): 1.8 times

CC(N/C(=N\C#N)Nc1ccncc1)C(C)(C)C (centres unmarked) [pinacidil]
SBP at 1 h after administration [1]: 208 ± 5 mmHg
heart rates at 1 h [1]: 421 ± 17
SBP at 3 h after administration [1]: 236 ± 5 mmHg
heart rates at 3 h [1]: 400 ± 15
SBP at 5 h after administration [1]: 241 ± 4 mmHg
heart rates at 5 h [1]: 354 ± 14
SBP at 9 h after administration [1]: 242 ± 5 mmHg
heart rates at 9 h [1]: 365 ± 16
SBP at 12 h after administration [1]: 244 ± 5 mmHg
heart rates at 12 h [1]: 352 ± 20
SBP at 24 h after administration [1]: 244 ± 5 mmHg
heart rates at 24 h [1]: 365 ± 15
SBP base value [1]: 242 ± 5 mmHg
heart rates base value [1]: 351 ± 19
+dp/dtmax [2, 5]: 571 ± 33 kPa/a
DBP [2, 5]: 67 ± 6 mmHg
HR [2, 5]: 317 ± 25 bpm
LVSP [2, 5]: 111 ± 9 mmHg
MBP [2, 5]: 76 ± 7 mmHg
SB [2, 5]: 91 ± 8 mmHg
Vpm [2, 5]: 4.1 ± 0.5 /a
−dp/dtmax [2, 5]: 447 ± 73 kPa/a
+dp/dtmax [2, 6]: 673 ± 28 kPa/a
DBP [2, 6]: 92 ± 5 mmHg
HR [2, 6]: 353 ± 17 bpm
LVSP [2, 6]: 124 ± 6 mmHg
MBP [2, 6]: 104 ± 5 mmHg
SB [2, 6]: 128 ± 5 mmHg
Vpm [2, 6]: 4.3 ± 0.5 /a
−dp/dtmax [2, 6]: 536 ± 42 kPa/a
antagonism of the cardiovascular effects by glibenclamide (in words) [2]: could aslo block
Dissociation kinetics k2 of [^3H]glibenclamide binding [3]: 1.15 ± 0.27 ×10^2 nM^−1 · min^−1
Dissociation kinetics Kd of [^3H]glibenclamide binding in presence of the drug [3]: 2.95 ± 0.95 nM
Association kinetics k1 of [^3H]glibenclamide binding [3]: 0.39 ± 0.24 ×10^−2nM^−1 · min^−1
Association kinetics kobs of [^3H]glibenclamide binding [3]: 2.32 ± 0.67 ×10^−2nM^−1 · min^−1
Association kinetics kA of [^3H]glibenclamide binding [3]: 33.91 ± 22.43 ×10^−2nM^−1 · min^−1
IC50 [4]: 200 ± 43.6 nM
Ki [4]: 200 nM
